Reference: patent US20070225316A1, “Methods and compositions for treating schizophrenia” (priority 2006, published 2007)
Structures can show the parent of a compound that is named as a salt.

Tested on: NMDA receptors (NMDA-induced currents)
Assay: Patch clamp (whole cell) registration of NMDA-induced currents in cultured rat hippocampus neurons
Assay type: cell-based
Conditions: for Change of the blocking effect of MK-801 on NMDA-induced currents after preliminary application of the substance: result in words
Description: Experiments were carried out by the patch clamp method on freshly isolated neurons of a rat brain cortex or on cultured rat hippocampus neurons. Neurons for cultivation were obtained from the hippocampus of neonatal rats (1-2 days) by the method of trypsinization followed by pipetting. Cells suspended in culture medium were placed in 3 mL quantities into the wells of a 6-well planchette (Nunc) or into Petri dishes, in which glasses coated with poly-L-lysine had first been placed. The cell concentration as a rule was […]. The culture medium consisted of Eagle's minimum medium and a DME/F12 medium (1:1) supplemented with 10% calf serum, glutamine (2 mM), gentamycin (50 μg/mL), glucose (15 mM) and 20 mM KCl, with the pH brought to 7-7.4 using NaHCO3. Planchettes containing cultures were placed in a CO2— incubator at 37° C. and 100% humidity. Cytosine arabinoside 10-20 μL was added on the second to third day of cultivation. After 6-7 days of cultivation 1 mg/mL glucose was added to the medium, or the medium was exchanged, depending on the following experiment. The cultured hippocampus neurons were placed in a 0.4 mL working chamber. The working solution had the following composition (mM): NaCl 150.0, KCl 5.0, CaCl2 2.6, MgSO4×7H2O 2.0, HEPES 10.0, glucose 15.0, pH 7.36.
Transmembrane currents produced by application of NMDA were registered by the patch clamp electrophysiological method in the whole cell configuration. Application of substances was done by the method of rapid superfusion. Currents were registered with the aid of borosilicate microelectrodes (resistance […]) filled with the following composition (mM): KCl 100.0, EGTA 11.0, CaCl2 1.0, MgCl2 1.0, HEPES 10.0, ATP 5.0 pH 7.2. An EPC-9 instrument (HEKA, Germany) was used for registration. Currents were recorded on the hard disk of a Pentium-IV PC using the pulse program, which is also purchased from HEKA. The results were analyzed with the aid of the Pulsefit program (HEKA).

Row | Compound | Change of the blocking effect of MK-801 on NMDA-induced currents after preliminary application of the substance | IC50 (cultured rat hippocampus neurons, range and average printed, dihydrochloride, read-out: IC50 of blocking effect on currents caused by application of NMDA) | Blockade of NMDA-induced currents (%) (dimebon alone at 10 μM) | Blockade of NMDA-induced currents (%) by MK-801 after preliminary perfusion with dimebon (preliminary perfusion with dimebon 10 μM, then MK-801)
1 | N[C@H](CCCP(=O)(O)O)C(=O)O [D-AP5, D-2-amino-5-phosphonovaleric acid] | did not decrease the blocking effect of MK-801 |  |  | 
2 | Cc1ccc2c(c1)c1c(n2CCc2ccc(C)nc2)CCN(C)C1 [Dimebon, 2,8-dimethyl-5-[2-(6-methylpyridyl-3)ethyl]-2,3,4,5-tetrahydro-1H-pyrido[4,3-b]indole dihydrochloride] | capable of reducing the blocking effect of MK-801 | 7.7 ± 1.9 µM | By 50-70% at 10 μM | 40±18%
